{"source": "patent US20210107871A1", "about": "(priority 2017, published 2021)", "format_in_all_cases": "cell-based", "key": {"[1]": {"system": "reston Ebola virus (pseudotype VSV)", "test": "microbe, parasite or virus in culture", "conditions": "Reston ebolavirus, read-out: C values"}, "[2]": {"system": "bundibugyo Ebola virus (pseudotype VSV)", "test": "microbe, parasite or virus in culture", "conditions": "read-out: C values"}, "[3]": {"system": "pseudotype VSV (expressing GFP) having the surface glycoprotein of Ebola virus (zaire sp.)", "test": "organism not typed", "conditions": "for IC50: Vero C1008; for activity at 0.02 µM / activity at 0.078 µM / activity at 0.312 µM / activity at 0.625 µM / activity at 1.25 µM / activity at 2.5 µM / activity at 5 µM / activity at 0.005 µM: Vesicular stomatitis virus, Vero C1008, 18 h, read-out: Viral Infection rate (%); for activity at 0.02 µM: Compound Conc. 0.020 μM; for activity at 0.078 µM: Compound Conc. 0.078 μM; for activity at 0.312 µM: Compound Conc. 0.312 μM; for activity at 0.625 µM: Compound Conc. 0.625 μM; for activity at 1.25 µM: Compound Conc. 1.25 μM; for activity at 2.5 µM: Compound Conc. 2.5 μM; for activity at 5 µM: Compound Conc. 5 μM; for activity at 0.005 µM: Compound Conc. 0.005 μM"}, "[4]": {"system": "tai forest Ebola virus (pseudotype VSV)", "test": "microbe, parasite or virus in culture", "conditions": "read-out: C values"}, "[5]": {"system": "Marburgvirus (Angola strain) (pseudotype VSV)", "test": "microbe, parasite or virus in culture", "conditions": "Orthomarburgvirus, read-out: C values"}, "[6]": {"system": "sudan Ebola virus (pseudotype VSV)", "test": "microbe, parasite or virus in culture", "conditions": "Sudan ebolavirus, read-out: C values"}}, "data": [{"compound": "COc1ccc(N(CCCN(C)C)S(=O)(=O)c2ccccc2)c(-c2ccccc2)c1", "note": "[4-27, N-[3-(dimethylamimo)propyl]-N-(4-methoxy-2-phenyl-phenyl)benzensulfonamide]", "values": [{"measurement": "IC50", "setting": "[1]", "value": "~1000", "unit": "nM"}, {"measurement": "IC50", "setting": "[2]", "value": "~50", "unit": "nM"}, {"measurement": "IC50", "setting": "[3]", "value": "~50", "unit": "nM"}, {"measurement": "activity at 0.02 µM", "setting": "[3]", "value": 81.5, "unit": "%"}, {"measurement": "activity at 0.078 µM", "setting": "[3]", "value": 45, "unit": "%"}, {"measurement": "activity at 0.312 µM", "setting": "[3]", "value": 3.49, "unit": "%"}, {"measurement": "activity at 0.625 µM", "setting": "[3]", "value": 0.4, "unit": "%"}, {"measurement": "activity at 1.25 µM", "setting": "[3]", "value": 0.18, "unit": "%"}, {"measurement": "activity at 2.5 µM", "setting": "[3]", "value": 0.14, "unit": "%"}, {"measurement": "activity at 5 µM", "setting": "[3]", "value": 0.2, "unit": "%"}, {"measurement": "IC50", "setting": "[4]", "value": "500 to 1000", "unit": "nM"}, {"measurement": "IC50", "setting": "[5]", "value": "1000 to 5000", "unit": "nM"}, {"measurement": "IC50", "setting": "[6]", "value": "~300", "unit": "nM"}]}, {"compound": "CCN1CCC(CN(c2ccc(OC)cc2-c2ccccc2)S(=O)(=O)c2ccccc2)CC1", "note": "[4-21]", "values": [{"measurement": "IC50", "setting": "[1]", "value": "~1000", "unit": "nM"}, {"measurement": "IC50", "setting": "[2]", "value": "~50", "unit": "nM"}, {"measurement": "IC50", "setting": "[3]", "value": "~50", "unit": "nM"}, {"measurement": "activity at 0.02 µM", "setting": "[3]", "value": 64.6, "unit": "%"}, {"measurement": "activity at 0.078 µM", "setting": "[3]", "value": 28.5, "unit": "%"}, {"measurement": "activity at 0.312 µM", "setting": "[3]", "value": 0.75, "unit": "%"}, {"measurement": "activity at 0.625 µM", "setting": "[3]", "value": 0.22, "unit": "%"}, {"measurement": "activity at 1.25 µM", "setting": "[3]", "value": 0.18, "unit": "%"}, {"measurement": "activity at 2.5 µM", "setting": "[3]", "value": 0.12, "unit": "%"}, {"measurement": "activity at 5 µM", "setting": "[3]", "value": 0.17, "unit": "%"}, {"measurement": "IC50", "setting": "[4]", "value": "500 to 1000", "unit": "nM"}, {"measurement": "IC50", "setting": "[5]", "value": "1000 to 5000", "unit": "nM"}, {"measurement": "IC50", "setting": "[6]", "value": "~300", "unit": "nM"}]}, {"compound": "CCN(CC)CCCN(c1ccc(OC)cc1-c1ccccc1)S(=O)(=O)c1ccccc1", "note": "[4-17, N-[3-(diethylamino)propyl]-N-(4-methoxy-2-phenyl-phenyl)benzensulfonamide]", "values": [{"measurement": "IC50", "setting": "[1]", "value": "~1000", "unit": "nM"}, {"measurement": "IC50", "setting": "[2]", "value": "~50", "unit": "nM"}, {"measurement": "IC50", "setting": "[3]", "value": "~50", "unit": "nM"}, {"measurement": "activity at 0.02 µM", "setting": "[3]", "value": 72.6, "unit": "%"}, {"measurement": "activity at 0.078 µM", "setting": "[3]", "value": 34.6, "unit": "%"}, {"measurement": "activity at 0.312 µM", "setting": "[3]", "value": 1.91, "unit": "%"}, {"measurement": "activity at 0.625 µM", "setting": "[3]", "value": 2.05, "unit": "%"}, {"measurement": "activity at 1.25 µM", "setting": "[3]", "value": 0.2, "unit": "%"}, {"measurement": "activity at 2.5 µM", "setting": "[3]", "value": 0.81, "unit": "%"}, {"measurement": "activity at 5 µM", "setting": "[3]", "value": 0.22, "unit": "%"}, {"measurement": "IC50", "setting": "[4]", "value": "500 to 1000", "unit": "nM"}, {"measurement": "IC50", "setting": "[5]", "value": "1000 to 5000", "unit": "nM"}, {"measurement": "IC50", "setting": "[6]", "value": "~300", "unit": "nM"}]}, {"compound": "COc1ccc(N(CC2CCN(C)CC2)S(=O)(=O)c2ccccc2)c(-c2ccccc2)c1", "note": "[4-20]", "values": [{"measurement": "IC50", "setting": "[1]", "value": "~1000", "unit": "nM"}, {"measurement": "IC50", "setting": "[2]", "value": "~50", "unit": "nM"}, {"measurement": "IC50", "setting": "[3]", "value": "~50", "unit": "nM"}, {"measurement": "activity at 0.005 µM", "setting": "[3]", "value": 91.8, "unit": "%"}, {"measurement": "activity at 0.02 µM", "setting": "[3]", "value": 78.8, "unit": "%"}, {"measurement": "activity at 0.078 µM", "setting": "[3]", "value": 43.7, "unit": "%"}, {"measurement": "activity at 0.312 µM", "setting": "[3]", "value": 4.58, "unit": "%"}, {"measurement": "activity at 0.625 µM", "setting": "[3]", "value": 2.58, "unit": "%"}, {"measurement": "activity at 1.25 µM", "setting": "[3]", "value": 0.23, "unit": "%"}, {"measurement": "activity at 2.5 µM", "setting": "[3]", "value": 0.09, "unit": "%"}, {"measurement": "activity at 5 µM", "setting": "[3]", "value": 0.17, "unit": "%"}, {"measurement": "IC50", "setting": "[4]", "value": "500 to 1000", "unit": "nM"}, {"measurement": "IC50", "setting": "[5]", "value": "1000 to 5000", "unit": "nM"}, {"measurement": "IC50", "setting": "[6]", "value": "~300", "unit": "nM"}]}, {"compound": "CNCCCN(c1ccc(OC)cc1-c1ccccc1)S(=O)(=O)c1ccccc1", "note": "[4-30, N-(4-methoxy-2-phenyl-phenyl)-N-[3-(methylamino)propyl]-benzensulfonamide]", "values": [{"measurement": "activity at 0.005 µM", "setting": "[3]", "value": 92.6, "unit": "%"}, {"measurement": "activity at 0.02 µM", "setting": "[3]", "value": 91, "unit": "%"}, {"measurement": "activity at 0.078 µM", "setting": "[3]", "value": 78.1, "unit": "%"}, {"measurement": "activity at 0.625 µM", "setting": "[3]", "value": 80.8, "unit": "%"}, {"measurement": "activity at 2.5 µM", "setting": "[3]", "value": 4.17, "unit": "%"}]}, {"compound": "CCN(CC)CCCN(c1ccc(OC)cc1[N+](=O)[O-])S(=O)(=O)c1ccc2ccccc2c1", "note": "[4-10, N-[3-(diethylamino)propyl]-N-(4-methoxy-2-nitro-phenyl)naphthalene-2-sulfonamide]", "values": [{"measurement": "activity at 0.312 µM", "setting": "[3]", "value": 106, "unit": "%"}, {"measurement": "activity at 0.625 µM", "setting": "[3]", "value": 103, "unit": "%"}, {"measurement": "activity at 2.5 µM", "setting": "[3]", "value": 22.7, "unit": "%"}, {"measurement": "activity at 5 µM", "setting": "[3]", "value": 3.57, "unit": "%"}]}, {"compound": "CCN(CC)CCCN(c1ccccc1-c1ccccc1)S(=O)(=O)c1ccccc1", "note": "[4-8, N-[3-(diethylamino)propyl]-N-(2-phenyl-phenyl)benzensulfonamide]", "values": [{"measurement": "activity at 0.312 µM", "setting": "[3]", "value": 89, "unit": "%"}, {"measurement": "activity at 1.25 µM", "setting": "[3]", "value": 10.8, "unit": "%"}, {"measurement": "activity at 2.5 µM", "setting": "[3]", "value": 1.93, "unit": "%"}, {"measurement": "activity at 5 µM", "setting": "[3]", "value": 1.11, "unit": "%"}]}]}
